Measurements reported in PubChem BioAssay AID1576 (EPA DSSTox, 2009).
Activity calls are given as the source filed them.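 Rule for the calls: active = chemicals shown by follow-up kinetic tests to compete for rat estrogen receptor sites, with a measured inhibition constant; inconclusive = some binding seen but constant unmeasurable owing to poor solubility; inactive = no binding up to top dose, or binding unconfirmed.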

What follows are molecules tested against Estrogen receptor (Rattus norvegicus) (UniProt P06211) (assay: DSSTox (KIERBL) EPA Estrogen Receptor Ki Binding Study (Laws et al.) Database). Details: Rat uterine cytosol ER, 3H-estradiol competitive binding.
Method: This study was conducted by EPA researchers to evaluate the validity of the rat uterine cytosolic (RUC) estrogen receptor (ER) competitive binding assay for use in the Endocrine Disruption Screening Program (EDSP). The assay measures the ability of radiolabeled 17-beta-estradiol (3H-E2) to bind with RUC ER in the presence of increasing concentrations of a test chemical. The goal is to employ this in vitro assay as a 1st tier screening tool for assessing the potential of structurally diverse environmental chemicals to bind to the ER, as well as to support research efforts to develop computational models to predict ER binding. A distinguishing feature of the present study was the use of secondary experimental analysis of binding curves and determination of Ki values to confirm that measured IC50 values corresponded to true positive results. The study concluded that a number of experimental conditions can confound interpretation of IC50 values obtained from the RUC ER-binding assay data and lead to false positive results. In particular, some chemical treatments likely alter the stability of the assay by changing the buffer pH, denaturing ER, or disrupting the ER binding kinetics. […] The chemicals used in this study were selected as part of a validation test for two Quantitative Structure-Activity Relationship (QSAR) models designed to predict ER binding [Fed. Reg. 67(250), 79618, Dec. 30, 2002]. Several hundred chemicals were initially screened, including approximately 100 chemicals selected from among the High Production Volume (HPV) chemicals included in EPA's Toxic Substances Control Act (TSCA) inventory that were predicted to be positive for ER binding, with the rest selected at random from the TSCA inventory. All chemicals were initially tested in ER competitive binding assays by Battelle Pacific Northwest Laboratories, Richland, Washington [EPA Contract Number 68-W-99-033, Task 6]. Approximately 50 chemicals produced binding curves that: (1) strongly implied competitive inhibition of ER binding, or (2) produced partial curves or irregular (non-sigmoid) binding curves. These chemicals were further evaluated in an ER competitive binding assay with secondary analysis to confirm true competitive inhibition and to determine an experimental Ki [U.S. EPA Contract 3D-5967-NTEX]. The results of RUC ER screening for these 50 structurally diverse chemicals, for which secondary confirmatory analyses were performed, were published in the Main Citation (Laws et al., 2006, Tox. Sci. 94:46-56). The remaining 228 chemicals were designated as non-binders based on initial screening studies.
The DSSTox KIERBL data files include all published IC50 and Ki experimental results for the 50 chemicals included in the Main Citation (Laws et al., 2006) (denoted Group 1), as well as previously unpublished results for an additional 228 structually diverse TSCA chemicals for which no ER binding was observed (denoted Group 2. IC50 values were determined for 32 compounds in Group 1 as the concentration of a test chemical that inhibits the maximal specific binding of 0.33 nM radiolabeled (3H) 17-beta-estradiol (E2) to rat uterine cytosolic (RUC) estrogen receptor (ER) by 50%. Confirmation of binding status was accomplished by secondary analysis using Lineweaver-Burk plots and slope replots to determine true competitive inhibition and an experimental Ki value. Ki is the inhibition constant for the test chemical, i.e., the concentration of the test chemical that will bind to half the binding sites at equilibrium (displacing half of the probe-bound receptors), in the absence of radioligand or other competitors. Ki reported as Mean +/- Standard Error from n=2 experiments (see StandardError_Ki_n2) and is determined from Lineweaver-Burk plots over the tested dose range (TestedRange_microM). For more information see BindingCurve_Group and BindingCurve_Details. […]

Chain of Estrogen receptor (Rattus norvegicus) (P06211 whole entry, looked up): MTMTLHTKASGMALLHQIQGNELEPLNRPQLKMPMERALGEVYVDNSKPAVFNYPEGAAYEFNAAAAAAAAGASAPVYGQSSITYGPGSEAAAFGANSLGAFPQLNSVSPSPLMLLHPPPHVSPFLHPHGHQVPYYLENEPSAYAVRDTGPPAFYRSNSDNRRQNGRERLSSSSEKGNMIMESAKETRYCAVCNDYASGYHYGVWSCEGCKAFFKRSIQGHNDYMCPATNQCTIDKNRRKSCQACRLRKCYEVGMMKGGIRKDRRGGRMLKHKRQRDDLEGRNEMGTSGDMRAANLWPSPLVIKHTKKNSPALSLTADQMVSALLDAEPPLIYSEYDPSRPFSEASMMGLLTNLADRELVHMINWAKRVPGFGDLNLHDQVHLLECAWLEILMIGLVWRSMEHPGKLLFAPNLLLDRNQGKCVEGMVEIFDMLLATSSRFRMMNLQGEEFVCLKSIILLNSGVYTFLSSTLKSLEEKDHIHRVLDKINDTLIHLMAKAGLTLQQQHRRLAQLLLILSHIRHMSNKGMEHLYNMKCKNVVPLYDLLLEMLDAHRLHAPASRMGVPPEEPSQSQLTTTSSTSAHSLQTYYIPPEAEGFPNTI

Structure (SMILES)	outcome
COc1cc(Cl)c(OC)cc1Cl	inactive; none
C=C[Si](C)(C)O[Si](C)(C)C=C	inactive; none
Cc1cc(Cc2cc(C)cc(C(C)(C)C)c2O)c(O)c(C(C)(C)C)c1	inactive; none
C=CC(=O)OCCC(F)(F)C(F)(F)C(F)(F)C(F)(F)C(F)(F)C(F)(F)C(F)(F)C(F)(F)C(F)(F)C(F)(F)F	inactive; incomplete
C[Si](O)(O)O	inactive; none
COC(=O)CCCCC(=O)OC	inactive; none
Cc1cc(C(C)(C)C)c(O)c(C)c1Cn1c(=O)n(Cc2c(C)cc(C(C)(C)C)c(O)c2C)c(=O)n(Cc2c(C)cc(C(C)(C)C)c(O)c2C)c1=O	inactive; none
CCCCCCCCCCCCCCCCCCCCCCCCO	inactive; none
O=C(Oc1ccccc1)c1ccc2ccccc2c1O	inactive; none
CCCCCCCC[Si](Cl)(Cl)Cl	inactive; none
CCCCCN(CCCCC)CCCCC	inactive; none
CC(C)CCCCCOC(=O)CS	inactive; none
CCCCNCCCCCCNCCCC	inactive; none
O=C(O)CCCCC(=O)O	inactive; none
O=C=Nc1cccc(C(F)(F)F)c1	inactive; none
O=C=NCCCCCCN=C=O	inactive; none
CC(C)COC(=O)CC(C(=O)OCC(C)C)S(=O)(=O)O (stereo not drawn)	inactive; none
COC(=O)c1cccc(C)c1S(=O)(=O)NC(=O)Nc1nc(OCC(F)(F)F)nc(N(C)C)n1	inactive; none
Cc1ccc(C)c(O)c1C	inactive; none
COCCO	inactive; none
CC(C)CC(=O)O	inactive; none
CCOc1ccc2c(c1)C(C)=CC(C)(C)N2	inactive; none
ClC(Cl)C(Cl)Cl	inactive; none
CCSC(C)CC1CC(=O)C(/C(CC)=N/OC/C=C/Cl)=C(O)C1 (stereo not drawn)	inactive; none

Structure (SMILES)	outcome
CCOc1ccc(NC(C)=O)cc1	inactive; none
CN(C)C(=O)Nc1ccc(Cl)c(Cl)c1	inactive; none
O=[N+]([O-])c1c(Cl)c(Cl)c(Cl)c(Cl)c1Cl	inactive; none
CCc1ccc(CC)cc1	inactive; none
O=C(O[C@@H](C(=O)O)[C@@H](OC(=O)c1ccccc1)C(=O)O)c1ccccc1	inactive; none
Cc1cc(O)c(C(C)(C)C)cc1C(C)CC(c1cc(C(C)(C)C)c(O)cc1C)c1cc(C(C)(C)C)c(O)cc1C (stereo not drawn)	inactive; none
O=C(O)c1ccc2cc(O)ccc2c1	inactive; none
OCCS	inactive; none
COC(=O)C(C)O (stereo not drawn)	inactive; none
O=C1OC2(c3ccc(O)cc3Oc3cc(O)ccc32)c2c(Cl)c(Cl)c(Cl)c(Cl)c21	inactive; none
O=C1c2ccccc2C(=O)N1SC1CCCCC1	inactive; none
CC(C)Oc1cc(-n2nc(C(C)(C)C)oc2=O)c(Cl)cc1Cl	inactive; none
CN1CSC(=S)N(C)C1	inactive; none
COc1cc(S(=O)(=O)O)c(C)cc1N=Nc1c(O)ccc2cc(S(=O)(=O)O)ccc12	inactive; none
C(=NC1CCCCC1)=NC1CCCCC1	inactive; none
CCCCCCC	inactive; none
O=C(OCc1ccccc1)c1ccccc1O	inactive; incomplete
CN(C)c1ccc(C(=C2C=CC(=[N+](C)C)C=C2)c2ccc(N(C)C)cc2)cc1	inactive; none
CC(C)CCC(C)Nc1ccc(NC(C)CCC(C)C)cc1 (stereo not drawn)	inactive; none
C=CC(=O)OCC(C)O (stereo not drawn)	inactive; none
Cc1cscn1	inactive; none
ClC1(Cl)C2(Cl)C3(Cl)C4(Cl)C(Cl)(Cl)C5(Cl)C3(Cl)C1(Cl)C5(Cl)C24Cl (stereo not drawn)	inactive; none
CC(C)(C)CC(C)(C)c1ccc(O)c(-n2nc3ccccc3n2)c1	inactive; none
CCCCCCCC=O	inactive; irregular

Structure (SMILES)	outcome
O=C1CCC(=O)N1Br	inactive; none
Oc1ccc(Sc2ccc(O)cc2O)c(O)c1	inactive; incomplete
CCCCCCCCCCCCCC(=O)OCCCC	inactive; none
CCCCCCCCCCCCOCCOCCO	inactive; none
CC(C)C(=O)C(C)C	inactive; none
O=P(O)(O)CCCl	inactive; none
CCCCCCCCCCCCCCC(Br)C(=O)O (stereo not drawn)	inactive; incomplete
CCCCCCOc1ccccc1C(=O)O	inactive; none
COCOC	inactive; none
O=C(O)c1ccccc1COc1ccccc1	inactive; none
C=CC(=O)OCC(C)C	inactive; none
NCCCCCCNCCCCCCN	inactive; none
CCOC(=O)/C=C/c1ccc(/C=C/C(=O)OCC)cc1	inactive; none
O=Cc1ccccc1[N+](=O)[O-]	inactive; none
O=C(Cl)c1ccccc1	inactive; none
CC1(C)C(C=C(Cl)Cl)C1C(=O)OC(C#N)c1cccc(Oc2ccccc2)c1 (stereo not drawn)	inactive; none
CCCCCCCCOc1ccc(C(=O)c2ccccc2)c(O)c1	inactive; none
C=CS(=O)(=O)O	inactive; none
CCOC(=O)c1ccccc1C(=O)OCC	inactive; none
NNC(=O)c1cccc(C(=O)NN)c1	inactive; none
O=C=NCc1cccc(CN=C=O)c1	inactive; none
CCc1ccc(Br)cc1	inactive; incomplete
Nc1ccc(F)c(Cl)c1	inactive; none
O=C(O)c1ccccc1Br	inactive; none

Structure (SMILES)	outcome
Cc1ccc2n[nH]nc2c1	inactive; none
CO[Si](CCCN)(OC)OC	inactive; none
CC(Cl)Cl	inactive; none
CCC(CO)(CO)CO	inactive; none
c1c[nH]cn1	inactive; none
N#CCc1ccccc1	inactive; none
Fc1cccc(Cl)c1CCl	inactive; none
CCCCOC(=O)CCC(C)=O	inactive; none
O=C(OCc1ccccc1)C(=O)OCc1ccccc1	inactive; none
CCC(C)N (stereo not drawn)	inactive; none
O=C(O)c1c(Cl)c(Cl)c(Cl)c(Cl)c1C1c2cc(Br)c(O)c(Br)c2Oc2c1cc(Br)c(O)c2Br	inactive; none
O=C1CCC(=O)O1	inactive; none
CCOC(=O)CCC(=O)OCC	inactive; none
Nc1c(N=Nc2ccc([N+](=O)[O-])cc2)c(S(=O)(=O)O)cc2cc(S(=O)(=O)O)c(N=Nc3ccccc3)c(O)c12	inactive; none
CCCCCOC(C)=O	inactive; none
O=C(Cl)c1ccccc1C(=O)Cl	inactive; none
COc1cc([N+](=O)[O-])ccc1N	inactive; none
CCSC(=O)N(CC)C1CCCCC1	inactive; none
CC(C)(c1cc(Br)c(OCCO)c(Br)c1)c1cc(Br)c(OCCO)c(Br)c1	inactive; none
Cc1cc(C(C)(C)C)cc(C)c1C	inactive; none
CC/C=C\CCOC(=O)c1ccccc1O	inactive; incomplete

Same assay, conditions: Rat uterine cytosol ER, 3H-estradiol competitive binding; TestedRange_microM: 0.5-10

Structure (SMILES)	outcome
CCCCCCCCCCCCCCCCCC[N+](C)(C)CCC[Si](OC)(OC)OC	inactive; irregular

Same assay, conditions: Rat uterine cytosol ER, 3H-estradiol competitive binding; TestedRange_microM: 1-10

Structure (SMILES)	outcome
CCCCCCCCCCCCCCN(C)C	inactive; complete

Same assay, conditions: Rat uterine cytosol ER, 3H-estradiol competitive binding; TestedRange_microM: 3-30

Structure (SMILES)	Potency [µM]
CC(C)(c1ccccc1)c1ccc(O)cc1	16.5

Same assay, conditions: Rat uterine cytosol ER, 3H-estradiol competitive binding; TestedRange_microM: 10-100

Structure (SMILES)	Potency [µM]
O=C(c1ccccc1)c1ccc(O)c(O)c1O	103

Same assay, conditions: Rat uterine cytosol ER, 3H-estradiol competitive binding; TestedRange_microM: 25-75

Structure (SMILES)	Potency [µM]
O=C(OCc1ccccc1)c1ccc(O)cc1	34.2
